PMC6152329, “Antitumoural Sulphur and Selenium Heteroaryl Compounds: Thermal Characterization and Stability Evaluation” (Molecules : A Journal of Synthetic Chemistry and Natural …, 2017)

Assays:
[1] = Thermogravimetric (TG) analysis of thermal stability; assay type: physicochemical; details: nitrogen, 50 to 350 °C, 10 °C/min
Procedure: The thermogravimetric (TG) studies were carried out with a Perkin–Elmer TGA-7 (Perkin Elmer, Inc. Watham, MA, USA) which was calibrated with alumel and nickel at 10 °C·min^−1. The calibration of the oven temperatures was carried out automatically and mass calibrated with a certified sample of 10 mg (ASTM E617, provided by Perkin Elmer, Inc. Watham, MA, USA). TG analyses were performed under a nitrogen atmosphere with a gas flow of 40 mL·min^−1, from 50 to 350 °C, at a heating rate of 10 °C·min^−1, using a sample of approximately 3 mg, in order to obtain the values of the Tonset and Tmax of the degradation process as well as any associated mass loss.

[2] = DSC successive melting-recrystallization cycles, polymorphic behaviour; assay type: physicochemical; design: key: I: Compounds that show a polymorphic phase transition into an amorphous or mainly amorphous solid form after a first melting–cooling scan; II: Compounds that change into a new polymorphic form with a different Tonset of fusion than the one observed at the first melting–recrystallization scan after cooling; III: These compounds show a fusion process without modifications in the thermal behaviour after an initial fusion–recrystallization cycle; IV: Compounds that show recrystallization or other types of phase transition of the original form into another crystalline one in the first heat scan; V: Compounds without fusion processes at the range of temperatures studied; *: fusion with decomposition; details: 10 °C/min
Procedure: To establish general polymorphic behaviours, samples of all the compounds synthetized (Figure 1) were exposed to successive cycles of melting–recrystallization using DSC. Calorimetric analyses were performed before the beginning of the degradation process (Table 6). […] This behaviour was shown by several compounds: VA1C, VA2E, VA8E, series H, VA6I, VA8J, VA6M and VA8M. DSC and PXRD results of compound VA7H are shown as supplementary material (Figures S1 and S2 and Table S1). • Behaviour II—Compounds that change into a new polymorphic form with a different Tonset of fusion than the one observed at the first melting–recrystallization scan after cooling. These compounds are VA7E and VA8O. DSC and PXRD results of compound VA7E are shown as supplementary material (Figures S3 and S4, Table S2). • Behaviour III—These compounds show a fusion process without modifications in the thermal behaviour after an initial fusion–recrystallization cycle. Consequently, there is no evidence of polymorphic behaviour. The compounds VA2C, VA2M, VA4J and VA5O belong to this group. DSC and PXRD results of compound VA2M are shown as supplementary material (Figures S5 and S6, Table S3). • Behaviour IV—Compounds that show recrystallization or other types of phase transition of the original form into another crystalline one in the first heat scan. In the successive cycles of melting–recrystallization, the new form may not alter its crystalline form or transit to another polymorphic form. Compounds VA6E, VA7J and VA7M show this behaviour. • Behaviour V—Compounds without fusion processes at the range of temperatures studied.
For calorimetric studies a Perkin–Elmer DSC diamond calibrated with indium and zinc (provided by Perkin–Elmer (Perkin Elmer, Inc. Watham, MA, USA) and fabricated according to guideline ISO35) at 10 °C·min^−1 and nitrogen flow of 20 mL·min^−1 was employed. The gas connected to the equipment was nitrogen with a purity of 99.999%. Calorimetric analyses were carried out in aluminium capsules for volatilities of 10 μL, at a heating rate of 10 °C·min^−1, using a sample of approximately 3 mg, in order to establish the Tonset, Tmax and the enthalpy of fusion ∆Hf.
The calorimetric analyses started with the study of the thermal behaviour of the compounds before the process of degradation in order to evidence the possible existence of polymorphism. For this preliminary study, samples of all the compounds were exposed to successive cycles of heating–cooling. All samples were heated from 50 °C to temperatures 15–20 °C below Tonset of the degradation process, in order to ensure that compounds were not degraded (Table 6). After melting the samples, they were left at room temperature for enough time to allow the compounds to recrystallize before the successive thermal process. Additional cycles of heating–cooling were performed if polymorphism was detected.

[3] = system: breast adenocarcinoma (MCF-7) cell line; assay: MTT cell viability assay, 72 h, MCF-7; assay type: cell-based, human; details: for SI (selectivity index): GI50(184B5)/GI50(MCF-7); for TGI: concentration that completely inhibits cell growth; for LD50: concentration that kills 50% of cells
Procedure: (§1) The novel synthetic compounds VA2J, VA4J, VA6G, VA6H, VA6I and VA6J were tested in breast adenocarcinoma (MCF-7) and non-malignant mammary-gland-derived (184B5) cell lines to be able to establish their potency and selectivity. The reference drug used was methylseleninic acid (MSA) as a Se-containing structure with promising in vitro and in vivo results against different tumour types. Results are expressed as the concentration that inhibits 50% cell growth (GI50), the concentration that inhibits completely cell growth (TGI) and the concentration that kills 50% of cells (LD50). The selectivity index (SI) is calculated as GI50(184B5)/GI50(MCF-7).
(§2) Cell lines were purchased from the American Type Culture Collection (ATCC, Barcelona, Spain). MCF7 cell lines were grown in Roswell Park Memorial Institute (RPMI) medium (Gibco, Madrid, Spain) supplemented with 10% fetal bovine serum (FBS; Gibco), 100 units/mL penicillin and […] (Gibco, Madrid, Spain). 184B5 cells were grown in DMEM/F12 medium supplemented with 5% FBS, 1x ITS (Lonza, Barcelona, Spain), 100 nM hydrocortisone (Sigma Aldrich, Madrid, Spain), 2 mM sodium pyruvate (Lonza), 20 ng/mL EGF (Sigma Aldrich, Madrid, Spain), 0.3 nM trans-retinoic acid (Sigma-Aldrich) 100 units/mL penicillin and […]. Cells were maintained at 37 °C and 5% CO2.
(§3) Compounds were dissolved in DMSO at a concentration of 0.01 M. Serial dilutions were prepared with non-supplemented medium. The cytotoxic effect of each compound was tested at eight different concentrations ranging between 0.01 and 100 µM.
(§4) A total of 10^4 cells/well in 96 well-plates were treated with either DMSO or increasing concentrations of the corresponding compound for 72 h and cell viability was determined using the MTT (3-(4,5-dimethylthiazol-2-yl)-2,5-diphenyltetrazolium bromide) (Sigma Aldrich, Madrid, Spain) assay. Briefly, cells were incubated with 50 µL of MTT (2 mg/mL stock) for 4 h. The medium was then removed by aspiration and the formazan crystals were dissolved in 150 µL of DMSO. The absorbance was measured at 550 nm in a microplate reader (Sunrise, Tecan, Männedorf, Switzerland). […] Data were obtained from at least three independent experiments performed in quadruplicate.

[4] = system: non-malignant mammary-gland-derived (184B5) cell line; assay: MTT cell viability assay, 72 h, 184B5; assay type: cell-based; details: 184B5, 72 h
Procedure: as §1, §2, §3, §4

TG To (Tonset of thermal degradation) [1]	DSC Behaviour (polymorphic/calorimetric behaviour) [2]	SMILES	other results
243.7 °C	V	N=C(N)SCc1ccc2c(c1)C(=O)c1ccccc1C2=O [VA8G]	
190.8 °C	*	N=C(N)SCc1ccc([N+](=O)[O-])o1 [VA8F]	
190.2 °C	I	N=C(N)SCc1ccc2ccccc2n1 [VA8H]	
263.3 °C	V	Sc1ccnc(S)n1 [VA2B]	
215.1 °C	I	N=C(N)SCc1cc2c(cc1Br)OCO2 [VA8E]	
266.2 °C	I	SCc1cc2c(cc1Br)OCO2 [VA2E]	
103.5 °C	V	CSc1ccnc(SC)n1 [VA4B]	
131.8 °C	V	CSc1nc2ccccc2s1 [VA4C]	
193.1 °C	*	N=C(N)SCc1c2ccccc2nc2ccccc12 [VA8D]	
201.8 °C	II	Cc1noc(C)c1CSC(=N)N [VA8O]	
164.8 °C	I	N#CSCN1C(=O)c2ccccc2C1=O [VA6M]	
105.6 °C	I	CSc1ccc2ccccc2n1 [VA4H]	
		C[Se](=O)O [MSA, methylseleninic acid, reference compound]	SI (selectivity index) [3]: 1.40; TGI ([3]; MCF-7, 72 h, MTT): 3.43 µM; GI50 ([3]; MCF-7, 72 h, MTT, concentration that inhibits 50% cell growth): 1.28 µM; LD50 ([3]; MCF-7, 72 h, MTT): >100 µM; GI50 [4]: 1.79 µM; LD50 [4]: >100 µM; TGI [4]: 3.84 µM
199.8 °C	*	N=C(N)SCc1ccc(-n2cccc2)cc1 [VA8P]	
205.0 °C	V	N#CSCc1c2ccccc2nc2ccccc12 [VA6D]	
251.05 °C	I	N=C(N)SCc1nc2ccccc2nc1CSC(=N)N [VA8J]	
224.7 °C	III	Sc1nc2ccccc2s1 [VA2C]	
233.1 °C	I	N=C(N)SCN1C(=O)c2ccccc2C1=O [VA8M]	
272.4 °C	*	COc1cc2oc(=O)cc(CSC(=N)N)c2cc1OC [VA8I]	

SMILES	TG To (Tonset of thermal degradation) [1]	DSC Behaviour (polymorphic/calorimetric behaviour) [2]	other results
N#CSCc1ccc2c(c1)C(=O)c1ccccc1C2=O [VA6G, (9,10-Dioxo-9,10-dihydroanthracen-2-yl)methyl Thiocyanate]	238.3 °C	V	SI (selectivity index) [3]: 3.99; TGI ([3]; MCF-7, 72 h, MTT): 23.95 µM; LD50 ([3]; MCF-7, 72 h, MTT): 67.27 µM; LD50 [4]: 64.84 µM; TGI [4]: 34.32 µM; GI50 ([4]; Homo sapiens): 14.3 µM
N=C(N)[Se]CN1C(=O)c2ccccc2C1=O [VA7M]	255.8 °C	IV	
N=C(N)[Se]Cc1ccc(-n2cccc2)cc1 [VA7P]	175.8 °C	*	
[SeH]Cc1c2ccccc2nc2ccccc12 [VA1D]	244.7 °C	V	
Cc1noc(C)c1C[Se]C(=N)N [VA7O]	185.9 °C	V	
Cc1noc(C)c1C[Se]C#N [VA5O]	141.7 °C	III	
N=C(N)[Se]Cc1ccc([N+](=O)[O-])o1 [VA7F]	214.7 °C	*	
COc1cc2oc(=O)cc(C[Se]C(=N)N)c2cc1OC [VA7I]	226.4 °C	*	
N=C(N)[Se]Cc1cc2c(cc1Br)OCO2 [VA7E]	205.2 °C	II	
N=C(N)[Se]Cc1ccc2c(c1)C(=O)c1ccccc1C2=O [VA7G]	198.2 °C	V	
[SeH]c1nc2ccccc2s1 [VA1C]	218.4 °C	I	
N=C(N)[Se]Cc1ccc2ccccc2n1 [VA7H]	145.8 °C	I	
COc1cc2oc(=O)cc(CSC#N)c2cc1OC [VA6I, (6,7-Dimethoxy-2-oxo-2H-chromen-4-yl)methyl Thiocyanate]	246.9 °C	I	SI (selectivity index) [3]: 0.50; TGI ([3]; MCF-7, 72 h, MTT): >100 µM; LD50 ([3]; MCF-7, 72 h, MTT): >100 µM; LD50 [4]: >100 µM; TGI [4]: >100 µM; GI50 ([4]; Homo sapiens): 2.26 µM
N#C[Se]Cc1ccc(-n2cccc2)cc1 [VA5P]	149.4 °C	*	
O=C1c2ccccc2C(=O)N1CS [VA2M]	166.0 °C	III	
